Source: the supplement of paper PMC11451515

Tested on: P12-Ichikawa
Assay: cell viability relative to DMSO control; higher = less cytotoxic
Details: 48 h
Method in brief: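 NOMO1, SEM and P12-Ichikawa leukemia cells spent at least four passages adapting to each medium before use. They were seeded at 500 cells/well (NOMO1, SEM) or 1000 cells/well (P12-Ichikawa) in 5 μl in 1536-well plates and pin-dosed with library compounds in DMSO at 11 threefold steps from 47 μM down to 0.79 nM. After 48 h at 37°C, CellTiter-Glo One luminescence was read. Viability is reported as a percentage of the DMSO wells on each plate, with cell-free wells as background.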

COc1cc(NC(=O)c2ccc(-c3ccc(Cl)cc3)o2)cc(OC)c1
cell viability [%]
Details | HPLM + 10% dialyzed FBS | RPMI 5 mM glucose + 10% FBS | RPMI 5 mM glucose + 10% dialyzed FBS
0.000781 µM | 93.8 | 97.4 | 84
0.00234 µM | 111 | 105 | 107
0.00702 µM | 110 | 100 | 114
0.0211 µM | 112 | 115 | 113
0.0632 µM | 115 | 108 | 112
0.19 µM | 109 | 115 | 107
0.569 µM | 111 | 108 | 115
1.71 µM | 111 | 117 | 104
5.12 µM | 101 | 101 | 101
15.4 µM | 99.2 | 99.5 | 94.3
46.1 µM | 104 | 95.5 | 104
